# Measured values reported in PubChem BioAssay AID1259411 (Chemical Carcinogenesis Research Information System (CCRIS), 2018).
# Active and inactive are the calls of the source. The rule behind the calls is not given here.
# Test system: rodent carcinogenicity bioassays, tumor incidence
# Test: CCRIS carcinogenicity studies
# Summary of the method: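 Archive of carcinogenicity, mutagenicity, tumor promotion and tumor inhibition results drawn from journals, NCI reports and other sources, expert-reviewed; covers 1985-2011 and is no longer updated.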
compound,measurement,setting,value
O=NN1CCC[C@H]1c1cccnc1,carcinogen call,"Species: HAMSTER, Route: SUBCUTANEOUS, Tumor Site: Type of Lesion: TRACHEA",active; positive
same,carcinogen call,"Species: MINK, Strain/Sex: MALE, FEMALE, Route: SUBCUTANEOUS, Dose: 0, 11.9 MILLIMOLAR (TOTAL DOSE) GIVEN IN SUBDOSES 2/WK FOR 38 WK (STUDY DURATION: 185 WK), Tumor Site: Type of Lesion: NASAL CAVITY: TUMORS",active; positive
same,carcinogen call,"Species: MOUSE, Route: INTRAPERITONEAL, Tumor Site: Type of Lesion: LUNG",active; positive
same,carcinogen call,"Species: MOUSE, Strain/Sex: CFLP/FEMALE, Route: DERMAL, Dose: 0, 12.5, 50, 200 UG IN ACETONE 2 D/WK FOR 104 WK (STUDY DURATION: 24 MO), Dose: 0, 12.5, 50, 200 UG IN ACETONE 2 D/WK FOR 104 WK (STUDY DURATION: 24 MO)",inactive; negative
same,carcinogen call,"Species: MOUSE, Strain/Sex: STRAIN-A/FEMALE, Route: INTRAPERITONEAL, Dose: 0, 40, 200 UMOL TOTAL DOSE ADMINISTERED IN SUBDOSES 3/WK FOR 7 WK (STUDY DURATION: 37 WK), Dose: 0, 40, 200 UMOL TOTAL DOSE ADMINISTERED IN SUBDOSES 3/WK FOR 7 WK (STUDY DURATION: 37 WK), Tumor Site: Type of Lesion: LUNG: TUMOR",active; positive
same,carcinogen call,"Species: RAT, Route: ORAL, Tumor Site: Type of Lesion: ESOPHAGUS, NASAL CAVITY",active; positive
same,carcinogen call,"Species: RAT, Strain/Sex: F344/FEMALE, Route: SUBCUTANEOUS, Dose: 0, 1, 3, 9 MMOL/KG BW (TOTAL DOSE) WITH SUBDOSES GIVEN 3/WK FOR 20 WK WITH A 2 WK INTERRUPTION AFTER 7 WK (STUDY DURATIO, Dose: 0, 1, 3, 9 MMOL/KG BW (TOTAL DOSE) WITH SUBDOSES GIVEN 3/WK FOR 20 WK WITH A 2 WK INTERRUPTION AFTER 7 WK (STUDY DURATIO, Tumor Site: Type of Lesion: NASAL CAVITY: TUMORS, ESOPHAGUS: BENIGN TUMORS",active; positive
same,carcinogen call,"Species: RAT, Strain/Sex: F344/MALE, Route: SUBCUTANEOUS, Dose: 0, 1, 3, 9 MMOL/KG BW (TOTAL DOSE) WITH SUBDOSES GIVEN 3/WK FOR 20 WK WITH A 2 WK INTERRUPTION AFTER 7 WK (STUDY DURATIO, Dose: 0, 1, 3, 9 MMOL/KG BW (TOTAL DOSE) WITH SUBDOSES GIVEN 3/WK FOR 20 WK WITH A 2 WK INTERRUPTION AFTER 7 WK (STUDY DURATIO, Tumor Site: Type of Lesion: NASAL CAVITY: TUMORS, LUNG: TUMORS, ESOPHAGUS: BENIGN TUMORS, Tumor Site: Type of Lesion: NASAL CAVITY: TUMORS, LUNG: TUMORS, ESOPHAGUS: BENIGN TUMORS",active; positive
Nc1ccc(O)c(N)c1,carcinogen call,"Species: MOUSE, Strain/Sex: B6C3F1/FEMALE, Route: GAVAGE, Dose: 0, 19, 38 MG/KG IN CORN OIL 5 D/WK FOR 104 WK (STUDY DURATION: 2 YR), Dose: 0, 19, 38 MG/KG IN CORN OIL 5 D/WK FOR 104 WK (STUDY DURATION: 2 YR)",inactive; negative
same,carcinogen call,"Species: RAT, Strain/Sex: F344/FEMALE, Route: GAVAGE, Dose: 0, 12.5, 25 MG/KG IN CORN OIL 5 D/WK FOR 104 WK (STUDY DURATION: 2 YR), Dose: 0, 12.5, 25 MG/KG IN CORN OIL 5 D/WK FOR 104 WK (STUDY DURATION: 2 YR)",inactive; negative
same,carcinogen call,"Species: RAT, Strain/Sex: F344/MALE, Route: GAVAGE, Dose: 0, 12.5, 25 MG/KG IN CORN OIL 5 D/WK FOR 104 WK (STUDY DURATION: 2 YR)",inactive; negative
O=C1C(O)N=C(c2ccccc2F)c2cc(Cl)ccc2N1CCO (stereo unspecified),carcinogen call,"Species: RAT, Strain/Sex: SPRAGUE-DAWLEY/FEMALE, Route: ORAL, Dose: 0, 3, 10, 30 MG/KG IN THE DIET FOR 104 WK (STUDY DURATION: 104 WK), Dose: 0, 3, 10, 30 MG/KG IN THE DIET FOR 104 WK (STUDY DURATION: 104 WK)",inactive; negative
same,carcinogen call,"Species: RAT, Strain/Sex: SPRAGUE-DAWLEY/MALE, Route: ORAL, Dose: 0, 3, 10, 30 MG/KG IN THE DIET FOR 104 WK (STUDY DURATION: 104 WK), Dose: 0, 3, 10, 30 MG/KG IN THE DIET FOR 104 WK (STUDY DURATION: 104 WK)",inactive; negative
O=S(=O)(O)c1c(N=Nc2c(O)ccc3ccccc23)ccc2ccccc12,carcinogen call,"Species: MOUSE, Strain/Sex: ICR/FEMALE, Route: DERMAL, Dose: 0, 1 MG IN 0.1 ML DISTILLED WATER 2/WK FOR A MEAN TOTAL DOSE OF 128.1 MG (STUDY DURATION: 18 MO)",inactive; negative
same,carcinogen call,"Species: MOUSE, Strain/Sex: ICR/MALE, Route: DERMAL, Dose: 0, 1 MG IN 0.1 ML DISTILLED WATER 2/WK FOR A MEAN TOTAL DOSE OF 128.1 MG (STUDY DURATION: 18 MO)",inactive; negative
ClCOCCOCCl,carcinogen call,"Species: MOUSE, Strain/Sex: ICR/HA SWISS/FEMALE, Route: DERMAL, Dose: 0, 1 MG IN 0.1 ML CYCLOHEXANE 3/WK FOR 502 D (STUDY DURATION: 570 D), Tumor Site: Type of Lesion: SKIN: PAPILLOMA, SKIN: SQUAMOUS CARCINOMA",active; positive
same,carcinogen call,"Species: MOUSE, Strain/Sex: ICR/HA SWISS/FEMALE, Route: INTRAPERITONEAL, Dose: 0, 0.3 MG IN 0.05 ML TRICAPRYLIN 1/WK FOR 546 D (STUDY DURATION: 570 D), Tumor Site: Type of Lesion: PERITONEUM: SARCOMA",active; positive
same,carcinogen call,"Species: MOUSE, Strain/Sex: ICR/HA SWISS/FEMALE, Route: SUBCUTANEOUS, Dose: 0, 0.3 MG IN 0.05 ML TRICAPRYLIN 1/WK FOR 569 D (STUDY DURATION: 570 D), Tumor Site: Type of Lesion: INJECTION SITE: SARCOMA",active; positive
C[C@]12C=CC(=O)C=C1CC[C@@H]1[C@@H]2[C@@H](O)C[C@@]2(C)[C@H]1CC[C@]2(O)C(=O)COC(=O)CCCc1ccc(N(CCCl)CCCl)cc1,carcinogen call,"Species: RAT, Strain/Sex: SPRAGUE-DAWLEY/FEMALE, Route: GAVAGE, Dose: 0, 12 MG/KG ADMINISTERED 1, 2, 4.5 OR 9 TIMES PER MO FOR 18 MO TO GIVE MEDIAN TOTAL DOSES OF 216, 432, 938, 1872 MG/KG (, Dose: 0, 12 MG/KG ADMINISTERED 1, 2, 4.5 OR 9 TIMES PER MO FOR 18 MO TO GIVE MEDIAN TOTAL DOSES OF 216, 432, 938, 1872 MG/KG (, Tumor Site: Type of Lesion: EAR CANAL: SQUAMOUS-CELL CARCINOMA",active; positive
CNC(=O)Oc1ccc2c(c1)[C@]1(C)CCN(C)[C@@H]1N2C,carcinogen call,"Species: RAT, Strain/Sex: SPRAGUE-DAWLEY/FEMALE (70/GROUP), Route: SUBCUTANEOUS (INGUINAL REGION), Dose: 0, 3.3 UG/KG BW, 2/D FOR 5 D (STUDY DURATION: 28 MO), Dose: 0, 3.3 UG/KG BW, 2/D FOR 5 D (STUDY DURATION: 28 MO), Tumor Site: Type of Lesion: MAMMARY GLAND: TUMOR",active; positive
c1ccc2c(c1)ccc1ncccc12,carcinogen call,"Species: RAT, Strain/Sex: SPRAGUE-DAWLEY/FEMALE, Route: SUBCUTANEOUS, Dose: 0, 200 UMOL/KG IN DMSO INTO SUPRASCAPULAR AREA ON DAY 1 OF LIFE FOLLOWED BY 0, 100 UMOL 1/WK AT WK 2-7 THEN O, 200 UMOL/, Dose: 0, 200 UMOL/KG IN DMSO INTO SUPRASCAPULAR AREA ON DAY 1 OF LIFE FOLLOWED BY 0, 100 UMOL 1/WK AT WK 2-7 THEN O, 200 UMOL/",inactive; negative
same,carcinogen call,"Species: RAT, Strain/Sex: SPRAGUE-DAWLEY/MALE, Route: SUBCUTANEOUS, Dose: 0, 200 UMOL/KG IN DMSO INTO SUPRASCAPULAR AREA ON DAY 1 OF LIFE FOLLOWED BY 0, 100 UMOL 1/WK AT WK 2-7 THEN O, 200 UMOL/, Dose: 0, 200 UMOL/KG IN DMSO INTO SUPRASCAPULAR AREA ON DAY 1 OF LIFE FOLLOWED BY 0, 100 UMOL 1/WK AT WK 2-7 THEN O, 200 UMOL/",inactive; negative
O=C(OC[C@@H]1O[C@H](OC(=O)c2cc(O)c(O)c(OC(=O)c3cc(O)c(O)c(O)c3)c2)[C@@H](OC(=O)c2cc(O)c(O)c(OC(=O)c3cc(O)c(O)c(O)c3)c2)[C@H](OC(=O)c2cc(O)c(O)c(OC(=O)c3cc(O)c(O)c(O)c3)c2)[C@H]1OC(=O)c1cc(O)c(O)c(OC(=O)c2cc(O)c(O)c(O)c2)c1)c1cc(O)c(O)c(OC(=O)c2cc(O)c(O)c(O)c2)c1,carcinogen call,"Species: MOUSE, Route: SUBCUTANEOUS, Tumor Site: Type of Lesion: LIVER, INJECTION SITE",active; positive
same,carcinogen call,"Species: RAT, Route: SUBCUTANEOUS, Tumor Site: Type of Lesion: LIVER",active; positive
same,carcinogen call,"Species: RAT, Strain/Sex: F344/FEMALE, Route: ORAL, Dose: 0, 0.25, 0.5% IN DISTILLED WATER AS DRINKING WATER FOR 2 YR (STUDY DURATION: 114 WK), Dose: 0, 0.25, 0.5% IN DISTILLED WATER AS DRINKING WATER FOR 2 YR (STUDY DURATION: 114 WK)",inactive; negative
same,carcinogen call,"Species: RAT, Strain/Sex: F344/MALE, Route: ORAL, Dose: 0, 0.25, 0.5% IN DISTILLED WATER AS DRINKING WATER FOR 2 YR (STUDY DURATION: 114 WK), Dose: 0, 0.25, 0.5% IN DISTILLED WATER AS DRINKING WATER FOR 2 YR (STUDY DURATION: 114 WK)",inactive; negative
